The values below come from patent US11679167B2, “Ophthalmic compositions, and ocular uses thereof, of indigo carmine” (priority 2018, dated 2023).

Entries after “also recorded” stand apart in the source; their conditions may differ.

The test system of data set [1] is ocular surface squamous neoplastic lesion. Description: Topical application of dye to a human eye, slit lamp view. The format is in vivo. The text has this:
FIG. 8 is a slit lamp view of a human eye wherein an ocular surface squamous neoplastic lesion is delineated after topical application of Indigo Carmine. A blue outline is seen around the perimeter of the white ocular surface squamous neoplastic lesion.

The subject of a further data set is eye bank eyes. Briefly: Dye solution instilled by injection into the anterior chamber of eye bank eyes; staining and outflow seen by naked eye or operating microscope. More on the design: species or system human. Particulars: for Appearance (egress) of dye in the outflow vessels after injection into the anterior chamber: human eye bank eyes, Indigo Carmine 0.004, 0.04 and 0.4 wt. %. The text has this: After an incision is made into the anterior chamber of the eye, a small amount of aqueous humor is expressed and the dye solution is instilled by injection into the anterior chamber. The dye solution is typically left in place for 30 seconds, during which time it stains the anterior capsule of the lens. Excess dye solution is then expelled, usually using a viscoelastic device or flushed out with a balanced salt solution.
Dye solutions containing 0.004 wt. %, 0.04 wt. %, and 0.4 wt. % of Indigo Carmine (prepared by serial dilutions of a 0.4 wt. % Indigo Carmine solution provided by Micro-Tech (Nanjing) Co.) were instilled by injection into the anterior chamber of seven eye bank eyes following the dye solution instillation procedure detailed above.
Special imaging techniques were not required.

For data set [2] the following is noted: cited from earlier work.
In another data set the test system is porcine eye. Briefly: Dye injected into the lenticular plain after Small Incision Lenticule Extraction (SMILE). The text has this:
FIG. 9A is an operating microscope view of a porcine eye upon which a Small Incision Lenticule Extraction procedure (SMILE) has been carried out. From this view, circular horizontal plains have been cut in the corneal stroma, a superficial smaller diameter cut and a deeper cut of larger diameter. The cuts join in the corneal periphery, thereby creating a lenticule. The arrows show the edge of these cuts.
FIG. 9B is an operating microscope view of a porcine eye upon which a Small Incision Lenticule Extraction procedure (SMILE) has been carried out. Indigo Carmine has been injected into the lenticular plain.

The conditions of data set [3]: sodium salt; cited from earlier work.
The next data set concerns anterior capsule. As to conditions: cited from earlier work.
The next data set concerns ocular structures. As to conditions: cited from earlier work.
The mark [4] stands for this setting: anterior chamber perfused or injected with dye solution, sodium salt.

For the compound `O=C1C(=C2Nc3ccc(S(=O)(=O)[O-])cc3C2=O)Nc2ccc(S(=O)(=O)[O-])cc21.[Na+].[Na+]` [Indigo Carmine, 5,5′-indigodisulfonic acid sodium salt], in data set [1], the “Delineation of ocular surface squamous neoplastic lesion” value is “delineated”. Also, in the data set with eye bank eyes, the “Diffusion of dye through tissues” value was “generally does not diffuse through tissues”. In the data set on eye bank eyes (setting [4]), the “Staining of the canal of Schlemm” value was “stains heavily; also recorded: heavy staining of Schlemm's canal” and the “Staining of the trabecular meshwork” value is recorded as “stains the trabecular meshwork lightly; also recorded: more lightly stained”. Besides, the “Visibility of dye in the collector channels on the surface of the eye after passing through the drainage system” value with eye bank eyes (at each concentration: 0.004 wt. %, 0.04 wt. %, 0.4 wt. %) is “visible to the naked eye of the surgeon”. Besides, the “Appearance (egress) of dye in the outflow vessels after injection into the anterior chamber” value (“Appearance (egress) of dye” below) in the data set on eye bank eyes (sodium salt) is “appeared in the fine vessels in the conjunctiva adjacent to the limbus, the aqueous veins and the conjunctival venous system; also recorded: some of the dye exiting the eye through the aqueous veins”. In addition, in the data set on eye bank eyes (injection via small corneal incision, capsulorhexis procedure, sodium salt), the “Staining of the anterior capsule of the lens” value is reported as “stain the anterior capsule of the crystalline lens; also recorded: lightly stained”. Also, the “Visibility of dye on the surface of the instilled eye” value in the data set with eye bank eyes (no special imaging techniques, standard operating microscope) is on record as “easily visible to the naked eye of the surgeon”. The “Dye in the deep scleral plexus” value in the data set on eye bank eyes (once the conjunctiva was reflected away, sodium salt) is on record as “observed in the deep scleral plexus; also recorded: deeper vessels are seen”. For the same compound, in data set [2], the Solubility in water entry is listed as “soluble in water”. For the same compound, in the data set on porcine eye, the “Identification of the lenticule edge” value is recorded as “white arrows indicate the complete circular edge of the lenticule”. Also, in data set [3], the Protein binding result is “low protein binding; also recorded: relatively reduced protein binding”.

For Brilliant Blue, the “Appearance (egress) of dye” value in the data set on eye bank eyes was “the dye appears to remain within the eye”.

For `CCN(CC)c1ccc(C(=C2C=CC(=[N+](CC)CC)C=C2)c2cc(O)c(S(=O)(=O)O)cc2S(=O)(=O)O)cc1` [Patent Blue], the “Appearance (egress) of dye” value in the data set with eye bank eyes is on record as “the dye appears to remain within the eye”.

`CC1(C)C(/C=C/C=C/C=C/C=C2\N(CCCCS(=O)(=O)O)c3ccc4ccccc4c3C2(C)C)=[N+](CCCCS(=O)(=O)[O-])c2ccc3ccccc3c21` [Indocyanine Green]: in the data set on eye bank eyes, the “Appearance (egress) of dye” value was “the dye appears to remain within the eye”.

Take `Cc1cc(-c2ccc(/N=N/c3c(S(=O)(=O)O)cc4cc(S(=O)(=O)O)cc(N)c4c3O)c(C)c2)ccc1/N=N/c1c(S(=O)(=O)O)cc2cc(S(=O)(=O)O)cc(N)c2c1O` [Trypan Blue]: the “Appearance (egress) of dye” value in the data set with eye bank eyes is listed as “the dye appears to remain within the eye”. Besides, in the data set on anterior capsule, the “Lowest concentration at which staining of the anterior capsule occurs” value is recorded as at least 0.0125 wt. %. Also, in the data set with ocular structures, the “Identifying and visualizing anterior lens capsule and trabecular meshwork” value is on record as “effective”; the “Identifying or visualizing the canal of Schlemm” value is “not effective”.
